Series [1] deals with neutrophils induced from CD34+ cells. The experiment in a line: Degranulation analysis by Western blotting with or without E. coli stimuli. As to conditions: FIGS. 1, 2. The format is cell-based, human. The procedure:
Western blotting (WB) was performed as described.^15 Antibodies for lactoferrin (Abcam, Cambridge, UK), MMP-9 (Merck Chemicals, Darmstadt, Germany), and LL-37 (Biolegend, San Diego, Calif.) were used in analyses.
Cells were incubated with or without E. coli DH5α (MOI of 5; cell to bacteria ratio 1:5) in serum-free DMEM medium for 30 min at 37° C. Both cell pellets and supernatants were collected by 3,000-rpm centrifugation for 7 min. The cell pellets were suspended with 100 μg/ml of gentamicin and incubated at 37° C. for 1 hr, followed by collection of cells and extraction of cellular proteins. The supernatant was filtered with a 0.22-μm filter (Pall corporation, Ann Arbor, Mich.) and proteins in the supernatant were then concentrated by using an Amicon Ultra-4 centrifugal filter unit designed to collect proteins with a mass greater than 3,000 daltons (Millipore, Billerica, Mass.). The quantity of the proteins was measured by using Bio-Rad DC Protein Assay (Hercules, Calif.).^29 The change in granule protein levels with or without E. coli stimuli was analyzed in parallel by WB.

Series [2] deals with CD34+ cells. The experiment in a line: Morphologic analysis of granulocytic differentiation of CD34+ cells. The format is cell-based, human. As to conditions: for neutrophil morphologic differentiation, promyelocyte to segmented stage (in words): G-CSF 25 ng/ml or Am80 2.5 nM; for efficacy as inducer of granulocytic differentiation (in words): CD34+ cells, FIG. 6, day 12-13. Here is the method:
(§1) Normal human primitive umbilical cord blood CD34+ cells were from AllCells (Emeryville, Calif.). CD34+ cells were expanded^29 about 50× by using StemSpan serum-free medium (StemCell Technologies, Vancouver, Canada) for 6 days according to the manufacturer's protocol. To induce granulopoiesis, CD34+ cells were cultured with myeloid medium supplemented with 25 ng/ml of G-CSF^17,29 for 6-12 days. Lymphoid and erythroid cells were blocked during granulopoiesis by addition of hydrocortisone and exclusion of erythropoietin.^17, 29 All-trans retinoic acid (RA) was from Sigma (St. Louis, Mo.), while the retinoid agonists Am80, CH55, and IT-YA-01115 (ITYA) were from Research Foundation ITSUU Laboratory (Tokyo, Japan). Each retinoid compound was dissolved in ethanol. The experimentally determined conditions, using 25 ng/ml of G-CSF^17,29 or 2.5 nM of Am80 for granulocytic induction of 6 days (FIG. 1), were applied in the studies.
Cell suspensions were cytocentrifuged onto Micro slides, followed by methanol fixation and stained with Wright-Giemsa (Sigma) as described.^17,29 The morphologic indicators of differentiation were evaluated under a Zeiss Axioplan microscope, and images were color balanced with Adobe Photoshop as described.^17
Cells suspended in PBS containing 0.5% BSA and 2 mM EDTA were mixed with anti-CD15 antibodies conjugated to magnetic microbeads (Miltenyi Biotec, Bergish Gladbach, Germany) for incubation of 30 min at 4° C. CD15+ subpopulation was then purified by using magnetic sorter (Miltenyi Biotec, Bergish Gladbach, Germany) according to the manufacturer's protocol.

A further series deals with neutropenic mice. The experiment in a line: Neutrophil recovery in CPA-induced neutropenic mice. The format is in vivo, C57BL6/J mice.
The test system of series [3] is CD34+ cells. The format is cell-based. As to conditions: for cell death rate (in words) / cell proliferation (in words): CD34+ cells, FIG. 6B, 6D. Here is the method:
as §1, with “[…].” for “Lymphoid and erythroid cells were blocked during granulopoiesis by addition of hydrocortisone and exclusion of erythropoietin.^17, 29 All-trans retinoic acid (RA) was from Sigma (St. Louis, Mo.), while the retinoid agonists Am80, CH55, and IT-YA-01115 (ITYA) were from Research Foundation ITSUU Laboratory (Tokyo, Japan).”
Cell proliferation was determined by cell count with a standard hemocytometer, as described.^17,29 Briefly, equal numbers of cells plated in triplicate were counted for up to 13 days after 72 hr of plating. By using trypan blue exclusion, cell proliferation and its associated cell death in the cultures were measured simultaneously.

Series [4] has as its system acute promyelocytic leukemia (APL). As to conditions: APL patients; cited from earlier work.
The test system of the next series is S. aureus. The series is described as follows: Bactericidal activity in vitro of neutrophils purified from PB of treated neutropenic mice.

Protocol for S. aureus: Each 5×10^5 to 2×10^6 of freshly purified PBN as well as ex vivo-induced GIN and AIN were suspended with 500 μl of culture medium (DMEM with 10% of FBS) in 1.5-ml tubes. Cells were incubated with log-phase Escherichia coli (E. coli) DH5α (provided by collaborator) or Staphylococcus aureus (S. aureus; ATCC) at an MOI of 5 or 10 at 37° C. for 15, 30, and/or 60 min, whereas bacteria in the absence of cells were used to determine growth. The samples with or without cells were centrifuged at 1000-rpm at each time point. Extracellular bacteria in the presence of cells were collected from the supernatants, and enumerated by plating different dilutions (20 μL each) on blood agar. Cell pellets collected from the samples infected with bacteria were further incubated with 100 μg/ml of gentamicin (Sigma) for 1 hr at 37° C. to kill external bacteria. Cells were then washed twice and lysed with 100 μL of 0.5% Triton X-100. Different-dilution aliquots (20 μL for each) of viable intracellular bacteria recovered from the cell lysates were plated on blood agar. The numbers of extracellular and viable intracellular bacteria at each time point were determined by CFU counts as described,^5,30 while the number of phagocytosed and killed bacteria was based on the counts of extracellular and viable intracellular bacteria to the number of relevant bacteria control in the neutrophil-free condition.^5,30

For `CC1(C)CCC(C)(C)c2cc(NC(=O)c3ccc(C(=O)O)cc3)ccc21` [Am80, tamibarotene], in series [1], the “granulocytic morphologic differentiation and granule production/secretion compared with G-CSF (in words)” value was “more effective than G-CSF”. Further, in the series with CD34+ cells [2] (6 days), the “neutrophil morphologic differentiation, promyelocyte to segmented stage (in words)” value is on record as “sufficiently induced”. The “granulocytic differentiation (in words)” value with CD34+ cells [2] (Am80 2.5 nM, 6 days) is “profoundly induced granulocytic differentiation with negligible monocytic induction”. Moreover, the “efficacy as inducer of granulocytic differentiation (in words)” value in the series on CD34+ cells [2] is “promote granulocytic differentiation with similar effectiveness”. In the series on neutropenic mice (day 3 post-CPA, Am80 5 mg/kg vs G-CSF of 250 μg, lower level of Ficoll-paque), the “neutrophil recovery (in words)” value was “competitive neutrophil recovery”. The “toxicity (in words)” value with CD34+ cells [3] (Am80 2.5 nM, 6 days) is on record as “less toxicity than 5 nM of Am80”. The “cell death (in words)” value with CD34+ cells [3] (Am80 10 nM) is “induced more cell death”. In the series on CD34+ cells [3], the “cell death rate (in words)” value is “lower than seen with either CH55 or RA” and the “cell proliferation (in words)” value was “inhibited cell proliferation”. In series [4], the “efficiency relative to RA or other retinoids as differentiation therapy” value was “approximately 10 fold” and the “toxicity relative to RA or other retinoids (in words)” value was “lower toxicity”. Moreover, the “efficacy of mobilized neutrophils against S aureus infection (in words)” value in the series with S. aureus is reported as “significantly more efficacious against S aureus infection than those by G-CSF”.
Turning to `CC(C)(C)c1cc(C(=O)/C=C/c2ccc(C(=O)O)cc2)cc(C(C)(C)C)c1` [CH55], the “efficacy as inducer of granulocytic differentiation (in words)” value in the series with CD34+ cells [2] is listed as “promote granulocytic differentiation with similar effectiveness”. Besides, the “cell proliferation (in words)” value with CD34+ cells [3] is given as “inhibited cell proliferation”.
The corresponding values for `CC1=C(/C=C/C(C)=C/C=C/C(C)=C/C(=O)O)C(C)(C)CCC1` [RA, all-trans retinoic acid] are “promote granulocytic differentiation with similar effectiveness” and “inhibited cell proliferation”.

B1: G-CSF: recombinant granulocyte colony-stimulating factor (protein, UniProt P09919 31-207, looked up)
Granulocyte …: TPLGPASSLPQSFLLKCLEQVRKIQGDGAALQEKLVSECATYKLCHPEELVLLGHSLGIPWAPLSSCPSQALQLAGCLSQLHSGLFLYQGLLQALEGISPELGPTLDTLQLDVADFATTIWQQMEELGMAPALQPTQGAMPAFASAFQRRAGGVLVASHLQSFLEVSYRVLRHLAQP
With B1, the “neutrophil morphologic differentiation, promyelocyte to segmented stage (in words)” value in the series with CD34+ cells [2] (6 days) was “induced more myeloblasts as well as promyelocytes and myelocytes than banded and segmented neutrophils”. The “efficacy as inducer of granulocytic differentiation (in words)” value with CD34+ cells [2] is listed as “significantly less efficacious”. The monocytes induced entry in the series on CD34+ cells [2] (G-CSF 25 ng/ml, 6 days) is “about 10%”. Besides, the “granulocytic differentiation and monocytic induction by treatment time (in words)” value in the series on CD34+ cells [2] (G-CSF for 6, 9 and 12 days) is reported as “more effective granulocytic differentiation with the lowest rate of monocytic induction on day 6”. For the same molecule, in the series with neutropenic mice (day 5, injection for 2 consecutive days), the “neutrophil recovery (in words)” value is “remarkably accelerated neutrophil recovery”. Moreover, in the series on CD34+ cells [3], the “cell death rate (in words)” value is listed as “lower rate of cell death compared to RA” and the “cell proliferation (in words)” value is on record as “greater cell proliferation”.

The values are drawn from patent US11116738B2, “Methods for treating neutropenia using retinoid agonists” (CHILDREN'S HOSPITAL LOS ANGELES, priority 2012, dated 2021).
